Laboratory results taken from ChEMBL document CHEMBL1201862, “PubChem BioAssay data set” (2004).
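All cell lines were grown in 96-well plates and treated with compound for 48 hours. Abbreviation: GI50, concentration required for 50% inhibition of growth.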 Active and inactive are the calls of the source. Cut-off read from the data, not from the text of the source: active = GI50 up to about 1.1 µM and inactive = higher.

Columns and labels:
Experiment in all cases: growth of human tumour cells (NCI), 48 h
[1] = test system: Malme-3M
[2] = test system: SN12C
[3] = test system: PC-3
[4] = test system: OVCAR-5
[5] = test system: HCT-116
[6] = test system: BT-549
[7] = test system: OVCAR-3
[8] = test system: M14
[9] = test system: T47D
[10] = test system: SK-MEL-28
[11] = test system: MDA-N
[12] = test system: MDA-MB-231
[13] = test system: IGROV-1
[14] = test system: NCI/ADR-RES
[15] = test system: U-251
[16] = test system: RXF 393
[17] = test system: SR
[18] = test system: NCI-H23
[19] = test system: RPMI-8226
[20] = test system: NCI-H522

SMILES	GI50 [1]	GI50 [2]	GI50 [3]	GI50 [4]	GI50 [5]	GI50 [6]	GI50 [7]	GI50 [8]	GI50 [9]	GI50 [10]	GI50 [11]	GI50 [12]	GI50 [13]	GI50 [14]	GI50 [15]	GI50 [16]	GI50 [17]	GI50 [18]	GI50 [19]	GI50 [20]
O=C(N/N=C/c1ccc(Cl)cc1)c1ccccc1Nc1ccccc1C(=O)N/N=C/c1ccc(Cl)cc1	64.4 µM (inactive)	> 100 µM (inactive)	> 100 µM (inactive)	38.6 µM (inactive)	> 100 µM (inactive)	> 100 µM (inactive)	> 100 µM (inactive)	33 µM (inactive)	> 100 µM (inactive)	> 100 µM (inactive)	> 100 µM (inactive)	91.6 µM (inactive)	> 100 µM (inactive)	> 100 µM (inactive)	> 100 µM (inactive)	> 100 µM (inactive)	> 100 µM (inactive)	> 100 µM (inactive)	> 100 µM (inactive)	–
Cc1ncc(COP(=O)(O)O)c(C)c1O	> 100 µM (inactive)	> 100 µM (inactive)	> 100 µM (inactive)	> 100 µM (inactive)	> 100 µM (inactive)	> 100 µM (inactive)	> 100 µM (inactive)	> 100 µM (inactive)	> 100 µM (inactive)	> 100 µM (inactive)	> 100 µM (inactive)	> 100 µM (inactive)	> 100 µM (inactive)	> 100 µM (inactive)	> 100 µM (inactive)	> 100 µM (inactive)	> 100 µM (inactive)	> 100 µM (inactive)	–	> 100 µM (inactive)
O=C1c2ccccc2-n2c1nc1ccc(Cl)cc1c2=O	–	> 100 µM (inactive)	> 100 µM (inactive)	> 100 µM (inactive)	71.4 µM (inactive)	> 100 µM (inactive)	> 100 µM (inactive)	> 100 µM (inactive)	0.474 µM (active)	–	16.6 µM (inactive)	62.1 µM (inactive)	78.2 µM (inactive)	> 100 µM (inactive)	34.5 µM (inactive)	3.48 µM (inactive)	77.4 µM (inactive)	66.2 µM (inactive)	1.36 µM (inactive)	–
N#Cc1nc(CSCc2ccccc2)oc1N	1.35 µM (inactive)	> 100 µM (inactive)	> 100 µM (inactive)	> 100 µM (inactive)	> 100 µM (inactive)	> 100 µM (inactive)	> 100 µM (inactive)	> 100 µM (inactive)	> 100 µM (inactive)	> 100 µM (inactive)	> 100 µM (inactive)	> 100 µM (inactive)	> 100 µM (inactive)	> 100 µM (inactive)	> 100 µM (inactive)	> 100 µM (inactive)	> 100 µM (inactive)	> 100 µM (inactive)	–	42.6 µM (inactive)
CCCCCCCC(CC(=O)O)OC(=O)CC(CCCCCCC)OC1OC(C)C(O)C(O)C1OC1OC(C)C(O)C(O)C1O (configuration not stated)	43.2 µM (inactive)	> 100 µM (inactive)	> 100 µM (inactive)	> 100 µM (inactive)	> 100 µM (inactive)	> 100 µM (inactive)	> 100 µM (inactive)	> 100 µM (inactive)	> 100 µM (inactive)	44.6 µM (inactive)	> 100 µM (inactive)	> 100 µM (inactive)	62.2 µM (inactive)	> 100 µM (inactive)	> 100 µM (inactive)	–	> 100 µM (inactive)	> 100 µM (inactive)	> 100 µM (inactive)	> 100 µM (inactive)
NCCNC(=O)CN(CC(=O)O)C1CCCCC1N(CC(=O)O)CC(=O)O (configuration not stated)	> 100 µM (inactive)	> 100 µM (inactive)	> 100 µM (inactive)	> 100 µM (inactive)	> 100 µM (inactive)	> 100 µM (inactive)	> 100 µM (inactive)	> 100 µM (inactive)	> 100 µM (inactive)	> 100 µM (inactive)	> 100 µM (inactive)	> 100 µM (inactive)	> 100 µM (inactive)	> 100 µM (inactive)	> 100 µM (inactive)	–	> 100 µM (inactive)	> 100 µM (inactive)	> 10 µM (inactive)	> 100 µM (inactive)
